Measured values: patent publication US20230146455A1, “TREATMENT OF INFLAMMATORY DISEASES WITH PEPTIDES AND PHARMACEUTICAL COMPOSITIONS” (Yuyu Pharma, Inc., priority 2020, published 2023)
Several values for one entry are separate records, joined by “and”; a condition that tells them apart may be missing. Identical values can stand only once. Where a SMILES comes first, the peptide text is derived from it. [ ]: non-standard residue; d: D form. Hyp = O=C(O)[C@@H]1C[C@@H](O)CN1

Tested on: IL-4
Assay: Example 9 Luminex, LPS hPBMCs: IL-4
Assay type: cell-based, human
Method: Treatment Human PBMCs were pretreated with YY-101, YDE-011 and YDE-043 or reference compound; Xiidra® at various concentration (ranging from 1 nM to 100 uM) for 2 h before stimulation. An equal volume of 0.5% DMSO was used as a vehicle control. Then, the cells were treated with LPS at 5 ug/ml. The supernatants from treated cells were harvested at 24 h and placed in a 96 well for Luminex cytokine & chemokine profiling using a Luminex 200 multiplex assay (Luminex; R&D system, USA).
The main study arm with triplicate wells per group in a 24-well plate: • 1. Blank • 2. PBMC: 0.5% DMSO • 3. PBMC+LPS (5 ug/ml) • 4. PBMC+YY-101 100 uM • 5. PBMC+YY-101 10 uM • 6. PBMC+YY-101 1 uM • 7. PBMC+YY-101 0.1 uM • 8. PBMC+YY-101 0.01 uM • 9. PBMC+LPS (5 ug/ml)+Xiidra®100 uM • 10. PBMC+LPS (5 ug/ml)+Xiidra® 10 uM • 11. PBMC+LPS (5 ug/ml)+Xiidra® 1 uM • 12. PBMC+LPS (5 ug/ml)+Xiidra®0.1 uM • 13. PBMC+LPS (5 ug/ml)+Xiidra®0.01 uM • 14. PBMC+LPS (5 ug/ml)+Xiidra®0.001 uM • 15. PBMC+LPS (5 ug/ml)+YY-101 100 uM • 16. PBMC+LPS (5 ug/ml)+YY-101 10 uM • 17. PBMC+LPS (5 ug/ml)+YY-101 1 uM • 18. PBMC+LPS (5 ug/ml)+YY-101 0.1 uM • 19. PBMC+LPS (5 ug/ml)+YY-101 0.01 uM • 20. PBMC+LPS (5 ug/ml)+YY-101 0.001 uM • 21. PBMC+LPS (5 ug/ml)+YDE-011 100 uM • 22. PBMC+LPS (5 ug/ml)+YDE-011 10 uM • 23. PBMC+LPS (5 ug/ml)+YDE-011 1 uM • 24. PBMC+LPS (5 ug/ml)+YDE-011 0.1 uM • 25. PBMC+LPS (5 ug/ml)+YDE-011 0.01 uM • 26. PBMC+LPS (5 ug/ml)+YDE-011 0.001 uM • 27. PBMC+LPS (5 ug/ml)+YDE-043 100 uM • 28. PBMC+LPS (5 ug/ml)+YDE-043 10 uM • 29. PBMC+LPS (5 ug/ml)+YDE-043 1 uM • 30. PBMC+LPS (5 ug/ml)+YDE-043 0.1 uM • 31. PBMC+LPS (5 ug/ml)+YDE-043 0.01 uM • 32. PBMC+LPS (5 ug/ml)+YDE-043 0.001 uM
Multiplex assay was used to measure 30 cytokines and chemokines. The 1:2, 1:10 and 1:200 diluted cell supernatant and serial dilution of the standard were dispensed into a 96 well plate at 50 ul/well. Then, the pre-mixed cocktail of antibody-coated magnetic beads was dispensed at 50 ul/well and incubated at room temperature for 2 h in a horizontal orbital microplate shaker at 800±500 rpm. The beads were washed using a magnetic device to prevent loss. The biotin-antibody was dispensed in 50 ul of each well and incubated at room temperature for 1 h in a shaker at 800±500 rpm. After washing, streptavidin-PE was added at 50 ul/well and incubated at room temperature for 30 min in a shaker under the same conditions. Finally, after washing, wash buffer (100 ul/well) was added to the plate and incubated in a shaker for 2 min. The Luminex™ 200 setting were set according to the manufacturer's protocol. The data was calculated with a standard five-parameter logistic nonlinear regression analysis of the data (xPonent software 4.2, USA). The levels of cytokine/chemokine are normalized to the live cell counts (1×10^5 cells/mL) and presented as concentrations per mL (pg/mL or ng/mL).

[1] = PBMC + LPS(5 ug/ml) + test article 0.001 uM, Mean
[2] = PBMC + LPS(5 ug/ml) + test article 0.001 uM, single replicates
[3] = PBMC + LPS(5 ug/ml) + test article 0.01 uM, Mean
[4] = PBMC + LPS(5 ug/ml) + test article 0.01 uM, single replicates
[5] = PBMC + LPS(5 ug/ml) + test article 0.1 uM, Mean
[6] = PBMC + LPS(5 ug/ml) + test article 0.1 uM, single replicates
[7] = PBMC + LPS(5 ug/ml) + test article 1 uM, Mean
[8] = PBMC + LPS(5 ug/ml) + test article 1 uM, single replicates
[9] = PBMC + LPS(5 ug/ml) + test article 10 uM, Mean
[10] = PBMC + LPS(5 ug/ml) + test article 10 uM, single replicates
[11] = PBMC + LPS(5 ug/ml) + test article 100 uM, Mean
[12] = PBMC + LPS(5 ug/ml) + test article 100 uM, single replicates

SMILES | Concentration, Bead name: IL-4 [1] [pg/mL] | MFI, Bead name: IL-4 [1] | conc/live cell, Bead name: IL-4 [1] [pg/10^5] | Concentration, Bead name: IL-4 [2] | MFI, Bead name: IL-4 [2] | conc/live cell, Bead name: IL-4 [2] | Concentration, Bead name: IL-4 [3] [pg/mL] | MFI, Bead name: IL-4 [3] | conc/live cell, Bead name: IL-4 [3] [pg/10^5] | Concentration, Bead name: IL-4 [4] | MFI, Bead name: IL-4 [4] | conc/live cell, Bead name: IL-4 [4] | Concentration, Bead name: IL-4 [5] [pg/mL] | MFI, Bead name: IL-4 [5] | conc/live cell, Bead name: IL-4 [5] [pg/10^5] | Concentration, Bead name: IL-4 [6] | MFI, Bead name: IL-4 [6] | conc/live cell, Bead name: IL-4 [6] | Concentration, Bead name: IL-4 [7] [pg/mL] | MFI, Bead name: IL-4 [7] | further results
CC(C)C[C@H](NC(=O)CNC(=O)[C@H](CC(C)C)NC(=O)[C@H](CCC(N)=O)NC(=O)CNC(=O)[C@@H]1C[C@@H](O)CN1)C(=O)N[C@@H](C)C(=O)NCC(=O)N1CCC[C@H]1C(=O)N[C@@H](CCCCN)C(=O)O [YDE-011] (H-[Hyp]GQLGLAGPK-OH) | 13.2 | −0.5 | 2.6 | 18.4 pg/mL and 7.7 pg/mL and 13.6 pg/mL | 0.0 and −1.0 and −0.5 | 4.1 pg/10^5 and 1.3 pg/10^5 and 2.3 pg/10^5 | 23.7 | 0.7 | 4.1 | 18.4 pg/ml and 26.4 pg/ml (2×) | 0.0 and 1.0 (2×) | 2.9 pg/10^5 and 4.3 pg/10^5 and 5.2 pg/10^5 | 22.4 | −0.3 | 2.5 | 18.4 pg/mL and 26.4 pg/mL | 0.0 and −2.0 and 1.0 | 2.8 pg/10^5 and 0.0 pg/10^5 and 4.6 pg/10^5 | 18.4 | −0.5 | conc/live cell, Bead name: IL-4 [7]: 2.4 pg/10^5; Concentration, Bead name: IL-4 [8]: 18.4 pg/mL; MFI, Bead name: IL-4 [8]: 0.0 (2×) and −1.5; conc/live cell, Bead name: IL-4 [8]: 3.3 pg/10^5 and 0.0 pg/10^5 and 3.8 pg/10^5; Concentration, Bead name: IL-4 [9]: 16.8 pg/mL; MFI, Bead name: IL-4 [9]: −0.2; conc/live cell, Bead name: IL-4 [9]: 3.2 pg/10^5; Concentration, Bead name: IL-4 [10]: 18.4 pg/ml (2×) and 13.6 pg/ml; MFI, Bead name: IL-4 [10]: 0.0 (2×) and −0.5; conc/live cell, Bead name: IL-4 [10]: 3.4 pg/10^5 and 2.3 pg/10^5 and 3.9 pg/10^5; Concentration, Bead name: IL-4 [11]: 7.7 pg/mL; MFI, Bead name: IL-4 [11]: −1.2; conc/live cell, Bead name: IL-4 [11]: 0.8 pg/10^5; Concentration, Bead name: IL-4 [12]: 7.7 pg/mL; MFI, Bead name: IL-4 [12]: −1.0 (2×) and −1.5; conc/live cell, Bead name: IL-4 [12]: 1.3 pg/10^5 (2×) and 0.0 pg/10^5
CC(C)C[C@H](NC(=O)[C@H](CCC(N)=O)NC(=O)CNC(=O)[C@@H]1C[C@@H](O)CN1)C(=O)NCC(=O)O [YDE-043] (H-[Hyp]GQLG-OH; N-terminus and C-terminus assumed) | 26.0 | 1.0 | 5.2 | 26.4 pg/mL and 33.2 pg/mL and 18.4 pg/mL | 1.0 and 2.0 and 0.0 | 6.0 pg/10^5 and 5.5 pg/10^5 and 4.0 pg/10^5 | 11.3 | −0.7 | 2.2 | 7.7 pg/ml (2×) and 18.4 pg/ml | −1.0 (2×) and 0.0 | 1.7 pg/10^5 and 1.2 pg/10^5 and 3.7 pg/10^5 | 17.5 | 0.0 | 3.3 | 26.4 pg/mL and 18.4 pg/mL and 7.7 pg/mL | 1.0 and 0.0 and −1.0 | 5.3 pg/10^5 and 3.3 pg/10^5 and 1.4 pg/10^5 | 26.4 | 0.2 | conc/live cell, Bead name: IL-4 [7]: 3.5 pg/10^5; Concentration, Bead name: IL-4 [8]: 26.4 pg/mL; MFI, Bead name: IL-4 [8]: −1.5 and 1.0 (2×); conc/live cell, Bead name: IL-4 [8]: 0.0 pg/10^5 and 5.5 pg/10^5 and 5.0 pg/10^5; Concentration, Bead name: IL-4 [9]: 14.8 pg/mL; MFI, Bead name: IL-4 [9]: −0.3; conc/live cell, Bead name: IL-4 [9]: 2.7 pg/10^5; Concentration, Bead name: IL-4 [10]: 18.4 pg/ml (2×) and 7.7 pg/ml; MFI, Bead name: IL-4 [10]: 0.0 (2×) and −1.0; conc/live cell, Bead name: IL-4 [10]: 3.5 pg/10^5 and 1.4 pg/10^5 and 3.3 pg/10^5; Concentration, Bead name: IL-4 [11]: 7.7 pg/mL; MFI, Bead name: IL-4 [11]: −1.0; conc/live cell, Bead name: IL-4 [11]: 1.2 pg/10^5; Concentration, Bead name: IL-4 [12]: 7.7 pg/mL; MFI, Bead name: IL-4 [12]: −1.0; conc/live cell, Bead name: IL-4 [12]: 1.2 pg/10^5
